# According to patent US20240294499A1, “TARGETED PROTEIN DEGRADATION USING BIFUNCTIONAL COMPOUNDS THAT BIND UBIQUITIN LIGASE AND TARGET MCL-1 PROTEIN” (Captor Therapeutics S.A., priority 2021, published 2024):
# Assays:
# MCL-1 protein [1] = target: T1, MCL-1 protein (Homo sapiens, UniProt Q07820); experiment: OPM-2 cells: MCL-1 protein degradation, Western blot; type: cell-based; design: endogenous in cells; host or cells: OPM-2; conditions: OPM-2 cell line, 6 h treatment, 100 nM compound, vs DMSO
# T1 sequence (Q07820 whole entry): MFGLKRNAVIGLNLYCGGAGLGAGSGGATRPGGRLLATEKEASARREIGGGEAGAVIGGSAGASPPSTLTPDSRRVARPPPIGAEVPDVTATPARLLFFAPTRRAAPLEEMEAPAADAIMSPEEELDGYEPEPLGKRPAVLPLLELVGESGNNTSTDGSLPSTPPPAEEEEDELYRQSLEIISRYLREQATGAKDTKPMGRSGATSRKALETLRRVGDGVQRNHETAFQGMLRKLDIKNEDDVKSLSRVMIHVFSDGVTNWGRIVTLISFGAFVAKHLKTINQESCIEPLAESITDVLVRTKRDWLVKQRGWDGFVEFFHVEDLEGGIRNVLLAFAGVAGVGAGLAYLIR
# Source text: The effect of various compounds of the invention and the reference compounds on MCL-1 protein degradation in the OPM-2 cell line was investigated, using the degradation assay protocol below.
# OPM-2 cells were maintained in RPMI-1640 medium, supplemented with penicillin/streptomycin and 10% Fetal Bovine Serum (FBS). During the treatment, FBS concentration was reduced to 1%.
# (§1) Compound stocks were pre-diluted in DMSO and added directly to the cells growth medium (final DMSO concentration: 0.5%).
# OPM-2 cells were collected, centrifuged (250 rcf, 5 min), resuspended in a growth medium containing 1% FBS and counted. The cell suspension was then adjusted to 1×10^6 cell/ml using a growth medium containing 1% FBS. Afterwards, 0.5×10^6 cells were seeded on 24-well plates in 0.5 mL of medium per well. Immediately after seeding cells, compounds in appropriate concentrations were added to the cell culture medium.
# (§2) Following the treatment with the compounds, cells were collected from the plates and suspended in a lysis buffer (2% SDS, 50 mM Tris, pH 8.0, 100 U/ml Pierce Universal Nuclease for Cell Lysis, complete EDTA-free Protease Inhibitor Cocktail) and incubated on ice for 45 min. The amount of protein was determined via BCA assay, and the equal quantity of each sample was loaded on the precast gel for the protein separation. Following the electrophoresis and transfer to the membrane, the membrane was stained with Ponceau (0.1% (w/v) Ponceau in 5% acetic acid). After total protein detection, the stain was washed out using TBST. After the antibody staining for MCL-1 and α-tubulin, the membranes were washed and signals developed.
# (§3) Densitometric values for MCL-1 were normalized to total protein level (the Ponceau Staining). [%] of protein reduction is calculated in comparison to the cells treated with DMSO, which stand for 0%.
# The results for the 6 h treatment with 100 nM compounds are shown in Table 9, using the following labels: • <30% for 0-29% of MCL-1 protein reduction, • ≥30% for 30-49% of MCL-1 protein reduction, • ≥50% for 50-100% of MCL-1 protein reduction.
# [2] = target: [MCL-1]-[compound of formula (I)]-[CRBN/DDB1] complex (Homo sapiens, UniProt Q07820+Q96SW2); experiment: AlphaLISA dose response ternary complex formation assay; type: binding; conditions: read-out: AlphaLISA dose response Average pEC50 by molecule (converted)
# Sequence of [MCL-1]-[compound of formula (I)]-[CRBN/DDB1] complex (Q07820 whole entry): as above
# Sequence of [MCL-1]-[compound of formula (I)]-[CRBN/DDB1] complex (Q96SW2 whole entry): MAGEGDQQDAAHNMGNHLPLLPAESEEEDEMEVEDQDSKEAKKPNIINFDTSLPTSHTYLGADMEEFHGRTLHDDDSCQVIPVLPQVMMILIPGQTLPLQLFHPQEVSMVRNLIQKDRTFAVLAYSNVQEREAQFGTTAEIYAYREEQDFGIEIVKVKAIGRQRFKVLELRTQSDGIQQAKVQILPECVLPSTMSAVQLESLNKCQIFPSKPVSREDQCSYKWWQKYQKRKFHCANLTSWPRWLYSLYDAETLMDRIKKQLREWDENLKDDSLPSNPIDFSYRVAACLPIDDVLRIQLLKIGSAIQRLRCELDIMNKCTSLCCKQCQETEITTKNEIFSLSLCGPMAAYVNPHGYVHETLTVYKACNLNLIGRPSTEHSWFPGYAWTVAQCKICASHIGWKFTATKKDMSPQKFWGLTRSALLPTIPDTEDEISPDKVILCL
# Sequence of [MCL-1]-[compound of formula (I)]-[CRBN/DDB1] complex (Q16531 whole entry partner): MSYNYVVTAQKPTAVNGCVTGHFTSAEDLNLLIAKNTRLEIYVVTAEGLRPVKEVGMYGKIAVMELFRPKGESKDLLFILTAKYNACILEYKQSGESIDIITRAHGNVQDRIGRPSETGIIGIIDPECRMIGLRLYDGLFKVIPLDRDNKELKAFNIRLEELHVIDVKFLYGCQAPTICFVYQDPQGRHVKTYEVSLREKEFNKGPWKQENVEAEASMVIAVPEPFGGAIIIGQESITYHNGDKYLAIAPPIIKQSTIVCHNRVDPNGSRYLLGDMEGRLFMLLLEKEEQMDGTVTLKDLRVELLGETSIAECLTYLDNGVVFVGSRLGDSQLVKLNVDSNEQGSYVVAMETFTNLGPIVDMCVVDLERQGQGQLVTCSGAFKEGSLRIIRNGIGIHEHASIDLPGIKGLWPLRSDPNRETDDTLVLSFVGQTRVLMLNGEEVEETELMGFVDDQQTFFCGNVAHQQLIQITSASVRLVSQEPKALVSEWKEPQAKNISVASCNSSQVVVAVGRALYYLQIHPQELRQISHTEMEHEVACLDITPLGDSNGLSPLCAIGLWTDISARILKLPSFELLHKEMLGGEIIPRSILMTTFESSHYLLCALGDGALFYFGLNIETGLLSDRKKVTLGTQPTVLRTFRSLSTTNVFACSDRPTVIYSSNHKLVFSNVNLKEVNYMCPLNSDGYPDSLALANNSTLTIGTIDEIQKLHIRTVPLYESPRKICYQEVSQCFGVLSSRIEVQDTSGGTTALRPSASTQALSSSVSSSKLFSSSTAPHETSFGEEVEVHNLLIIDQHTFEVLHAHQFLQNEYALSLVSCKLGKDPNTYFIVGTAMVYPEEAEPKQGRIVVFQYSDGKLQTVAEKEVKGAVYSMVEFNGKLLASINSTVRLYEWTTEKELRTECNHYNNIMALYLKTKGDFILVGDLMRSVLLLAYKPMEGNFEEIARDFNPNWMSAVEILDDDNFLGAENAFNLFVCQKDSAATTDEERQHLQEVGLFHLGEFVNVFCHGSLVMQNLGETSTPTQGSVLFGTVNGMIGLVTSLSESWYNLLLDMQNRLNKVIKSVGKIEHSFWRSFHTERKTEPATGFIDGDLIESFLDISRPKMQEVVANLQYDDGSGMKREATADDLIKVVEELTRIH
# Method in brief: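 EC50 comes from dose–response of AlphaLISA luminescence (excitation 680, emission 615 nm), normalised between DMSO background and an internal positive control, with concentrations past the hook point dropped. Ternary complex formed by mixing bead-bound biotin-hMCL-1 and His-CRBN/DDB1 (protein solutions 40 and 200 nM) with compound in 2% DMSO, 30 min, 25 °C.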
# MCL-1 protein [3] = target: T1, MCL-1 protein; experiment: DMS 114 cells: MCL-1 protein degradation, Western blot; type: cell-based; design: endogenous in cells; conditions: DMS 114 cell line, 6 h treatment, 1 μM compound, vs DMSO
# Procedure: The effect of various compounds of the invention on MCL-1 protein degradation in the DMS 114 cell line was investigated, using the degradation assay protocol below.
# DMS 114 cells were maintained in Waymouth's MB 752/1 medium, supplemented with penicillin/streptomycin and 10% Fetal Bovine Serum (FBS).
# as §1
# DMS 114 cells were detached, collected, centrifuged (250 rcf, 5 min), resuspended in growth medium containing 10% FBS and counted. Cell suspension was then adjusted to 0.25×10^6 cell/ml using growth medium containing 10% FBS. Afterwards, 0.5×10^6 cells were seeded on 6-well plates in 2 mL of medium per well. Plates were then place in the incubator at 37° C. until treatment. Next day, compounds in appropriate concentrations were added to the wells and the plates incubated for additional 6 or 24 hours. DMSO was used as control (final concentration 0.5%).
# as §2, with “washed on” for “collected from”, “plates, lysed with the” for “plates and suspended in a”, “MCL-1, PARP, cleaved Caspase 3” for “MCL-1”
# as §3
# The results for the 6 h treatment with 1 μM compounds are shown in Table 10, using the following labels: • <50% for 0-49% of MCL-1 protein reduction, • ≥50% for 50-74% of MCL-1 protein reduction, • ≥75% for 75-100% of MCL-1 protein reduction.
"Western blot, % of protein reduction (MCL-1 protein [1])",EC50 [2],"Western blot, % of protein reduction (MCL-1 protein [3])",Compound
≥50%,< 100 nM,–,"Cc1nn(C)c(C)c1-c1c(F)ccc2c(CCCOc3cccc4cc(F)ccc34)c(C(=O)O)n(CCN3CCN(C(=O)COc4cccc5c4C(=O)N(C4CCC(=O)NC4=O)C5=O)CC3)c12 (stereo not shown) [Compound 215, 1-{2-[4-(2-{[2-(2,6-dioxopiperidin-3-yl)-1,3-dioxo-2,3-dihydro-1H-isoindol-4-yl]oxy}acetyl)piperazin-1-yl]ethyl}-6-fluoro-3-{3-[(6-fluoronaphthalen-1-yl)oxy]propyl}-7-(1,3,5-trimethyl-1H-pyrazol-4-yl)-1H-indole-2-carboxylic acid]"
≥50%,< 100 nM,≥75%,"Cc1nn(C)c(C)c1-c1c(Cl)ccc2c(CCCOc3cccc4cc(F)ccc34)c(C(=O)O)n(CCN3CCN(C(=O)COc4cccc5c4CN(C4CCC(=O)NC4=O)C5=O)CC3)c12 (stereo not shown) [Compound 220, 6-chloro-1-{2-[4-(2-{[2-(2,6-dioxopiperidin-3-yl)-1-oxo-2,3-dihydro-1H-isoindol-4-yl]oxy}acetyl)piperazin-1-yl]ethyl}-3-{3-[(6-fluoronaphthalen-1-yl)oxy]propyl}-7-(1,3,5-trimethyl-1H-pyrazol-4-yl)-1H-indole-2-carboxylic acid]"
≥50%,–,≥75%,"Cc1nn(C)c(C)c1-c1c(Cl)ccc2c(CCCOc3cccc4cc(F)ccc34)c(C(=O)O)n(CCN3CCN(C(=O)Cn4c(C)nc5c(C(=O)NC6CCC(=O)NC6=O)cccc54)CC3)c12 (stereo not shown) [Compound 268, 6-chloro-1-{2-[4-(2-{4-[(2,6-dioxopiperidin-3-yl)carbamoyl]-2-methyl-1H-1,3-benzodiazol-1-yl}acetyl)piperazin-1-yl]ethyl}-3-{3-[(6-fluoronaphthalen-1-yl)oxy]propyl}-7-(1,3,5-trimethyl-1H-pyrazol-4-yl)-1H-indole-2-carboxylic acid]"
≥50%,< 100 nM,≥75%,"Cc1nn2c(c1-c1c(Cl)ccc3c(CCCOc4cccc5cc(F)ccc45)c(C(=O)O)n(CCN4CCN(C(=O)COc5cccc6c5CN(C5CCC(=O)NC5=O)C6=O)CC4)c13)COCC2 (stereo not shown) [Compound 346, 6-Chloro-1-(2-(4-(2-((2-(2,6-dioxopiperidin-3-yl)-1-oxoisoindolin-4-yl)oxy)acetyl)piperazin-1-yl)ethyl)-3-(3-((6-fluoronaphthalen-1-yl)oxy)propyl)-7-(2-methyl-6,7-dihydro-4H-pyrazolo[5,1-c][1,4]oxazin-3-yl)-1H-indole-2-carboxylic acid]"
≥50%,< 100 nM,≥50%,"Cc1nn(C)c(C)c1-c1c(Cl)ccc2c(CCCOc3cccc4ccccc34)c(C(=O)O)n(CCN3CCN(C(=O)COc4cccc5c4C(=O)N(C4CCC(=O)NC4=O)C5=O)CC3)c12 (stereo not shown) [Compound 204, 6-chloro-1-(2-(4-(2-((2-(2,6-dioxopiperidin-3-yl)-1,3-dioxoisoindolin-4-yl)oxy)acetyl)piperazin-1-yl)ethyl)-3-(3-(naphthalen-1-yloxy)propyl)-7-(1,3,5-trimethyl-1H-pyrazol-4-yl)-1H-indole-2-carboxylic acid]"
